# According to US20200102349A1, “PEPTIDE REAGENTS AND METHODS FOR DETECTION AND TARGETING OF DYSPLASIA, EARLY CANCER AND CANCER” (THE REGENTS OF THE UNIVERSITY OF MICHIGAN, priority 2014, published 2020):
# Where no end group is shown, it is not given here.
# Key:
# tumor xenograft = details: systemic administration; cited from earlier work
# HT29 cells [1] = test: Peptide binding to colorectal cancer cells on confocal microscopy (HT29); format: cell-based, human; details: HT29, 5 μM, 3 min
# Protocol: (§1) HT29, SW480, and SW620 cells (˜10^3) were grown on cover slips to ˜80% confluence. The cells were washed 1× with PBS and incubated with 5 μM of QRH*-Cy5.5 and PEH*-Cy5.5 for 3 min at RT. The cells were then washed 3× in PBS, fixed with 4% paraformaldehyde (PFA) for 5 min, washed 1× with PBS, and then mounted on glass slides with ProLong Gold reagent containing DAPI (Invitrogen). Confocal fluorescence images were collected with FITC, Cy5.5, and DAPI filters (Leica Inverted SPSX Confocal Microscope System) using a 63× oil-immersion objective. Fluorescence intensities from 5 cells in 2 independent images were quantified using custom Matlab (Mathworks) software.
# (§2) We assessed binding of QRH*-Cy5.5 to a panel of colorectal cancer cells that vary in EGFR expression level on confocal microscopy. We observed binding of QRH*-Cy5.5 to the surface (arrows) of HT29, SW480, and SW620 cells with decreasing strength, FIG. 3A-C, scale bars 30 μm. […] Results are an average of 10 cells from 2 independent images. EGFR expression is shown on Western blot, FIG. 3H.
# SW480 cells = test: Peptide binding to colorectal cancer cells on confocal microscopy (SW480); format: cell-based, human; details: SW480, 5 μM, 3 min
# Protocol: as §1, §2
# SW620 cells = test: Peptide binding to colorectal cancer cells on confocal microscopy (SW620); format: cell-based, human; details: SW620, 5 μM, 3 min
# Protocol: as §1, §2
# [2] = tested on: colonic dysplasia (flat lesions and polyps); test: In vivo NIR fluorescence endoscopy of colon in CPC;Apc mouse; details: for mean (±SD) log of the T/B ratio: topical 100 μM, 5 min incubation
# Protocol: For the in vivo fluorescence images of mouse colon, the T/B ratios for flat dysplasia and polyps were log-transformed to improve normality. The fold-change between classification pairs was estimated using the anti-log of the difference in the log-transformed data. Differences in results between the experimental and control peptides were evaluated on t-test. *P<0.05 was considered significant. Similar methods were used to evaluate the ex vivo fluorescence images of human colonic specimens. The results were plotted on a receiver-operator characteristic (ROC) curve. Co-localization of peptide and antibody binding was evaluated on Pearson's correlation coefficient. All analyses were performed using custom Matlab software (MathWorks Inc).
# Mouse imaging studies were performed with approval of the University of Michigan Committee on the Use and Care of Animals (UCUCA). The mice were housed in pathogen-free conditions and supplied water ad libitum under controlled conditions of humidity (50±10%), light (12/12 hour light/dark cycle) and temperature (25° C.). Anesthesia was induced and maintained via a nose cone with inhaled isoflurane mixed with oxygen at a concentration of 2-4% at a flow rate of ˜0.5 L/min. The colon was first rinsed with tap water to remove mucous and debris. White light illumination was used first to identify anatomic landmarks, including polyps, mucosal folds, colonic segment, and distance of endoscope tip from anus, to register images with histology. The Cy5.5-labeled peptides were delivered at a concentration of 100 μM in a volume of 1.5 mL through the 3 Fr instrument channel. After 5 min for incubation, the colon was rinsed 3× with a tap water to remove the unbound peptides. After imaging was completed, the mice were euthanized. The colon was resected, and divided along the longitudinal axis. Flat lesions and polyps were identified on fluorescence, excised perpendicular to the mucosal surface, and processed for histology (H&E). We collected images from mice (n=5) that ranged in age from 7 to 10 months.
# Imaging was performed using a small animal endoscope (Karl Storz Veterinary Endoscopy).^39 A xenon light source provides white light illumination via a fluid light cable. A diode-pumped solid state laser (TechnicaLaser Inc) provides excitation at λex=671 nm. The laser beam is expanded to a diameter of 3 mm to fill the aperture of the light cable. The laser power at the tip of the endoscope is <2 mW. The white light images reflect off a dichroic mirror (Semrock Inc, # FF685-Di02-25×36, λc=685 nm), and are focused by an achromatic doublet (Edmund Optics Inc, #32-323). They pass through a neutral density filter (OD 1), and are detected by a color camera (Point Grey Research, # GX-FW-28S5C-C). The fluorescence images pass through the dichroic and a band pass filter (Semrock Inc, # FF01-716/40-25, λC=716 nm, Δλ=40 nm), and are focused on a monochrome camera (Point Grey Research, # GX-FW-28S5M-C). All videos (1932×1452 resolution) are recorded at 15 frames per sec via a firewire connection.
# White light and fluorescence videos were exported in avi format with 24 (RGB) and 8 (grayscale) bit digital resolution for the color and fluorescence images, respectively. […] Individual frames were exported using custom Matlab software. On the fluorescence images, 3 regions of interest (ROI, 25×25 pixels) were picked at random within the dysplastic lesion and within adjacent areas of normal-appearing mucosa. The mean intensities within these ROI's on the fluorescence images were measured. The target to-background (T/B) ratio for each image was determined by ratioing the mean intensities of these two ROIs.
# EGFR [3] = target: T1, EGFR (Homo sapiens, UniProt P00533); test: siRNA knockdown of EGFR in HT29 cells, confocal fluorescence microscopy; format: cell-based; set-up: endogenous in cells; host or cells: HT29 human colorectal adenocarcinoma cells (ATCC)
# Protocol: as §1
# We used siRNA to knockdown expression of EGFR in HT29 cells. We used ON-TARGETplus human EGFR siRNA and ON-TARGETplus non-targeting pool (Thermo Scientific) per manufacturer's protocol. 5 μL of siRNA at 5 μM/L concentration was transfected into HT29 cells using DharmaFECT (Thermo Scientific). QRH*-Cy5.5 and PEH*-Cy5.5 were incubated with HT29 siEGFR and siCL cells. The cells were fixed with either 4% PFA or methanol. A 1:1000 dilution of primary monoclonal mouse anti-EGFR antibody (Thermo Scientific, # MS-396, clone 199.12, IgG2a isotype) was incubated overnight at 4° C. Afterwards, the cells were washed 3× with PBS, and further incubated with 1:500 dilution of AF488-labeled secondary goat anti-mouse IgG antibody (Life Technologies, # A-11029) for 1 hour at RT, washed 3×, and then mounted on glass slides with ProLong Gold reagent containing DAPI (Invitrogen). Confocal fluorescence images were collected with FITC, Cy5.5, and DAPI filters using a 63× oil-immersion objective.
# We validated specific binding of QRH*-Cy5.5 to EGFR on siRNA knockdown in HT29 cells. On confocal microscopy, QRH*-Cy5.5 (red), FIG. 2A, and AF488-labeled anti-EGFR (green), FIG. 2B, bind strongly to the surface (arrows) of control HT29 cells (transfected with siCL, non-targeting siRNA), scale bars 30 μm. […] The results (mean±std) for QRH*-Cy5.5, anti-EGFR AF488, and PEH*-Cy5.5 to control cells (siCL) were 7.8±1.7, 3.1±1.0, and 1.6±0.3 AU, respectively, and to EGFR knockdown cells (siEGFR) were 2.5±0.8, 1.0±0.4, and 1.9±0.7 AU, respectively, *P<0.01 by paired t-test, FIG. 2G. Results are an average of 10 cells from 2 images performed independently. EGFR expression is shown on Western blot, FIG. 12H.
# HT29 cells [4] = test: Competition for peptide binding with unlabeled peptide; format: cell-based, human; details: unlabeled peptide 0-500 μM, then 5 μM QRH*-Cy5.5, 4° C.
# Protocol: Specific binding of QRH*-Cy5.5 to HT29 cells was validated on competitive inhibition with unlabeled QRH* peptide. A total of −10^3 HT29 cells were grown to −70% confluence on cover slips in triplicate. Unlabeled QRH* and PEH* peptide at 0, 50, 100, 150, 250, and 500 μM were added and incubated with the cells for 30 min at 4° C. The cells were washed and incubated with 5 μM of QRH*-Cy5.5 for another 30 min at 4° C. The cells were washed and fixed with 4% PFA for 5 min. The cells were washed with PBS and mounted with ProLong Gold reagent containing DAPI (Invitrogen). Fluorescence images were collected at each concentration using a 63× objective (Zeiss Axioskop 2 plus microscope), and intensities from 5 cells in 2 independent images were quantified using custom Matlab (Mathworks) software.
# HT29 cells [5] = test: Apparent dissociation constant on flow cytometry; format: binding, human; details: 4° C., 1 hour
# Protocol: We measured the apparent dissociation constant of the peptide to HT29 cells as an assessment of binding affinity. QRH*-Cy5.5 was serially diluted in PBS at concentrations of 0, 10, 25, 50, 75, 100, 125, 150 and 200 nM. HT29 cells (˜10^5) were incubated with QRH*-Cy5.5 at 4° C. for 1 hour, washed with cold PBS, and the mean fluorescence intensities were measured on flow cytometry. The equilibrium dissociation constant kd=1/ka was calculated by performing a least squares fit of the data to the non-linear equation […]. I0 and Imax are the initial and maximum fluorescence intensities, corresponding to no peptide and at saturation, respectively, and [X] represents the concentration of the bound peptide [Thomas et al., Clin Exp Metastasis, 26:105-119 (2009)]. Origin 6.1 data analysis software (OriginLab Corp) was used to calculate kd.
# HT29 cells [6] = test: Apparent association time constant on flow cytometry; format: binding, human
# Protocol: We measured the apparent association time constant of the peptide to HT29 cells as an assessment of binding onset. HT29 cells were grown to […] confluence in 10 cm dishes, and detached with PBS-based cell dissociation buffer (Invitrogen). Cells (˜10^5) were incubated with 5 μM QRH*-Cy5.5 at 4° C. for various time intervals ranging from 0 to 20 min. The cells were centrifuged, washed with cold PBS, and fixed with 4% PFA. Flow cytometry analysis was performed as described above, and the median fluorescence intensity (y) was ratioed with that of HT29 cells without addition of peptide at different time points (t) using Flowjo software. The rate constant k was calculated by fitting the data to a first order kinetics model, y(t)=Imax[1−exp^(−kt)], where Imax=maximum value,^60 using Prism 5.0 software (GraphPad Inc).
# [7] = tested on: OE21 human esophageal SCC cells; test: Binding of FITC-labeled peptide to esophageal SCC cells on confocal microscopy; format: cell-based
# Protocol: We have further validated specific binding of the FITC-labeled peptide to EGFR on co-localization with anti-EGFR antibody. A total of ˜7.5×10^3 OE21 cells were grown to ˜70% confluence on cover slips and fixed with methanol for 5 min at ˜20° C. The cells were incubated for 2 hours at RT with 1:500 dilution of primary anti-EGFR mAb (199.12, Neomarkers). The cells were incubated with 1:500 dilution of secondary Cy5.5-labeled antibody for 1 hour at RT, and mounted with ProLong Gold with DAPI (Invitrogen). On confocal microscopy, we observe specific binding of Cy5.5-labeled anti-EGFR antibody (red) to the membrane (arrow) of OE21 cells, FIG. 8A. We then added the FITC-labeled peptide to the OE21 cells. After 10 min for incubation at 37° C., co-localization of the peptide (green) with the antibody (red) to the membrane (arrow) of OE21 cells can be observed, FIG. 8B.
# EGFR [8] = target: T1, EGFR; details: read-out: binding affinity; cited from earlier work
substance,measurement,setting,value
CMYIEALDKYAC,time of peak accumulation / binding activity in tumor xenograft after injection,tumor xenograft,8 h
LARLLT,time of peak accumulation / binding activity in tumor xenograft after injection,tumor xenograft,~80 h
"PEH*-Cy5.5: scrambled sequence PEHKRRQ (SEQ ID NO: 19) for control, Cy5.5-labeled (also: Cy5.5 label, site not given here) [reference compound]",fluorescence intensity of binding (mean±std),HT29 cells [1],1.7±0.4
same,fluorescence intensity of binding (mean±std),SW480 cells,1.2±0.3
same,fluorescence intensity of binding (mean±std),SW620 cells,0.8±0.3
same,mean (±SD) log of the T/B ratio,[2]; flat lesions (n=15),0.108±0.143
same,mean (±SD) log of the T/B ratio,[2]; polyps (n=15),0.186±0.233
same,NIR fluorescence signal from polyp and flat lesions in vivo,"[2]; topical, distal colon, 5 min",minimal signal
same,fluorescence intensity (mean±std),EGFR [3]; EGFR knockdown HT29 cells (siEGFR),1.9±0.7 AU
same,fluorescence intensity (mean±std),"EGFR [3]; control HT29 cells (siCL, non-targeting siRNA)",1.6±0.3 AU
PEH*: unlabeled PEH* (control) (PEHKRRQGGGSK) [reference compound],change of fluorescence intensity of QRH*-Cy5.5 binding on addition of unlabeled peptide,HT29 cells [4],no change
QRH*: unlabeled QRH* peptide (QRHKPREGGGSK),change of fluorescence intensity of QRH*-Cy5.5 binding on addition of unlabeled peptide,HT29 cells [4],decrease in a concentration dependent manner
QRHKPRE,Kd,HT29 cells [5],50 nM
same,binding time scale (onset),HT29 cells [6],< 2.5 min
same,apparent association time constant k,"HT29 cells [6]; 5 μM, 4° C., flow cytometry",0.406 min⁻¹
"SHR*-FITC: FITC labeled SHRNRPRNTQPS (SHR*) (SEQ ID NO: 21) peptide (also: FITC label, site not given here)",binding on confocal fluorescence microscopy,[7],significantly increased fluorescence intensity
same,co-localization with Cy5.5-labeled anti-EGFR antibody,"[7]; 10 min, 37° C.",co-localization
YHWYGYTPQNVI,Kd,EGFR [8],22 nM
same,time of peak accumulation / binding activity in tumor xenograft after injection,tumor xenograft,4 h
